Experimental data as given in PubChem BioAssay AID602458 (NMMLSC, 2012).
Converted amounts (≈) assume the structure as drawn. The source made the active and inactive calls.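 Rule for the calls: active = compounds whose saturated solubility in pH 7.4 saline buffer exceeds 10 µg/mL; inactive = the rest.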

Test system: 1xPBS pH 7.4 kinetic solubility, UV absorbance
Test: kinetic aqueous solubility of hits, late-stage follow-up, ADME assay for GPR30 and estrogen receptor ligands, biophysical, 1xPBS, pH 7.4, UV absorbance (AID 602458)
Settings: hits give high values

Compound	solubility
COc1cc([N+](=O)[O-])cc2c1NC(C1CC=CCC1)C1CC=CC21 (configuration not stated)	0.28 µg/mL (inactive) (≈ 0.858 µM)
CC(=O)c1ccc2c(c1)[C@@H]1C=CC[C@@H]1[C@H](c1cc3c(cc1Br)OCO3)N2	0.14 µg/mL (inactive) (≈ 0.34 µM)
